Reference: ChEMBL document CHEMBL3217577, “Recent applications of multicomponent reactions in medicinal chemistry” (Medchemcomm, 2012)
pIC50, pKd, pKi: −log10 of the molar value. Values after ≈ are worked out from the molar mass of the structure shown.

Tests used:
[1] = target: Glycogen synthase kinase-3 beta (Mus musculus, UniProt Q9WV60); assay: Inhibition of recombinant mouse GSK3beta expressed in COS-1 cells by luciferase reporter gene assay; assay type: cell-based
Plasmodium falciparum [2] = assay: Antiparasitic activity against chloroquine-resistant Plasmodium falciparum assessed as inhibition of parasite survival; assay type: functional, organism-based
HeLa = assay: Antiproliferative activity against human HeLa cells; assay type: functional
Plasmodium falciparum [3] = assay: Ratio of chloroquine IC50 to compound IC50 for chloroquine-resistant Plasmodium falciparum; assay type: functional
Plasmodium falciparum [4] = assay: Antiparasitic activity against chloroquine-resistant Plasmodium falciparum; assay type: functional, organism-based
[5] = target: Mitogen-activated protein kinase 14 (Homo sapiens, UniProt Q16539); assay: Inhibition of p38 alpha MAP kinase (unknown origin)
Aurora kinase A = target: T1, Aurora kinase A (Homo sapiens, UniProt O14965); assay: Inhibition of Aurora A kinase (unknown origin)
T1 sequence (O14965 whole entry): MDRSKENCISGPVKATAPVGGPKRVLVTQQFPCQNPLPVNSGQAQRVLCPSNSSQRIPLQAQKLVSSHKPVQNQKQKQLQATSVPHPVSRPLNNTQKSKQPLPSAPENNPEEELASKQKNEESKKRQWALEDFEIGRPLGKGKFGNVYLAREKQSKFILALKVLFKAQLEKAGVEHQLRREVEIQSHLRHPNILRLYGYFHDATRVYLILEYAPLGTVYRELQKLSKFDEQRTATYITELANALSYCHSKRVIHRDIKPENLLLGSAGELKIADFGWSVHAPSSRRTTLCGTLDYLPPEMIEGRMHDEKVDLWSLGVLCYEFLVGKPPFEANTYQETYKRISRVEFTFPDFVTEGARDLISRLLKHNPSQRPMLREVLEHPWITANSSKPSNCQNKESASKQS

[6] = target: T2, M-phase inducer phosphatase 2 (Homo sapiens, UniProt P30305); assay: Inhibition of CDC25B (unknown origin)
T2 sequence (P30305 whole entry): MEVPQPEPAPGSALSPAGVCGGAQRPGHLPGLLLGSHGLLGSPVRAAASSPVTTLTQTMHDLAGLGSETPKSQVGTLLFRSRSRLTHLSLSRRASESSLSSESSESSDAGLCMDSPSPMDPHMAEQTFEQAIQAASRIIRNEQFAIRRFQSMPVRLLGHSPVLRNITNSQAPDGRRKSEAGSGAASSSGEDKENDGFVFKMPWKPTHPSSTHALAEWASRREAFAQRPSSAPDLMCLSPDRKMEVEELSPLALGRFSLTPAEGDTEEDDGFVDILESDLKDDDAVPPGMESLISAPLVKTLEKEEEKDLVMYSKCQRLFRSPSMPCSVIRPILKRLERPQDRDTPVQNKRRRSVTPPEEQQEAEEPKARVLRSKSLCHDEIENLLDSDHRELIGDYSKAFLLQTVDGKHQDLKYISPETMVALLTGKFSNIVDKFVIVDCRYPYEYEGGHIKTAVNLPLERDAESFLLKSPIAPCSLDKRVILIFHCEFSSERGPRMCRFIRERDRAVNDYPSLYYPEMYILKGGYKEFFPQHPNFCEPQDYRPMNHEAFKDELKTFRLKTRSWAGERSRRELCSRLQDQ

[7] = target: T3, Tyrosine-protein phosphatase non-receptor type 2 (Homo sapiens, UniProt P17706); assay: Inhibition of TC-PTP (unknown origin)
T3 sequence (P17706 whole entry): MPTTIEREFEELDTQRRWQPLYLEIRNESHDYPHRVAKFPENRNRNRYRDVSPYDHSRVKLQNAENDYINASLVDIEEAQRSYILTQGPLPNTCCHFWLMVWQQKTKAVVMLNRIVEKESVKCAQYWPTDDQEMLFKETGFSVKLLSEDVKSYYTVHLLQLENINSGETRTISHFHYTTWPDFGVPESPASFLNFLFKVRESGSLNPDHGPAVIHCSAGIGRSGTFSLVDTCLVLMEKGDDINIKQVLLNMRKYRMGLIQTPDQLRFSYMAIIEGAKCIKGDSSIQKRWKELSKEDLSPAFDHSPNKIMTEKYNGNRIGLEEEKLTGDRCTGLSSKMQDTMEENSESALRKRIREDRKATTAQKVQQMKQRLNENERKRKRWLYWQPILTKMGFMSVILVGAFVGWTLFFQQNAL

[8] = target: T4, Tyrosine-protein phosphatase non-receptor type 1 (Homo sapiens, UniProt P18031); assay: Inhibition of PTP1B (unknown origin)
T4 sequence (P18031 whole entry): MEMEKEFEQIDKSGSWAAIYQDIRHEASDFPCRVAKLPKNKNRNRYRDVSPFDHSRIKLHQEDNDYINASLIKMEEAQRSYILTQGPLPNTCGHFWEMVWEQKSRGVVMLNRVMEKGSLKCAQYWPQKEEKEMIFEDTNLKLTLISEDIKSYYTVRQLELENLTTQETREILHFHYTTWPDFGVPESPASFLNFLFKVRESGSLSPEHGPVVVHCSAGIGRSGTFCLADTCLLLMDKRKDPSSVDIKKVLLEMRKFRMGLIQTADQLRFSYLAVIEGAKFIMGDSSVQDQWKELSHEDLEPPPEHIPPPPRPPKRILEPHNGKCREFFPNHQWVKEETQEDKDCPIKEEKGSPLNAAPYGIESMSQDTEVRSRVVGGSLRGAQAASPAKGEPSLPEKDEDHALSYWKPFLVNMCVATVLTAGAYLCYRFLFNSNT

[9] = Inhibition of Mycobacterium tuberculosis protein tyrosine phosphatase B
[10] = target: T5, Tumour suppressor p53/oncoprotein Mdm2 (Homo sapiens, UniProt Q00987); assay: Competitive inhibition of recombinant human Mdm2 (aa 1 to 118)-p53 ( 1 to 321) interaction; assay type: protein assay
[11] = target: T6, E3 ubiquitin-protein ligase Mdm2 (Homo sapiens, UniProt Q00987); assay: Binding affinity to HDM2 ( unknown origin) by NMR analysis
[12] = target: T5, Tumour suppressor p53/oncoprotein Mdm2; assay: Inhibition of Mdm2-p53 interaction in human PA-1 cells; assay type: cell-based
[13] = target: T6, E3 ubiquitin-protein ligase Mdm2; assay: Inhibition of Mdm2 in p53-deficient human PA-1 cells; assay type: cell-based
MCF7 = assay: Antiproliferative activity against human MCF7 cells; assay type: functional, cell-based
Trypanosoma cruzi = assay: Antiparasitic activity against epimastigote stage of Trypanosoma cruzi assessed as growth inhibition at 50 uM; assay type: functional
Prolyl endopeptidase = target: T7, Prolyl endopeptidase (Homo sapiens, UniProt P48147); assay: Inhibition of purified prolyl oligopeptidase (unknown origin) after 1 hr by spectrophotometry
T7 sequence (P48147 whole entry): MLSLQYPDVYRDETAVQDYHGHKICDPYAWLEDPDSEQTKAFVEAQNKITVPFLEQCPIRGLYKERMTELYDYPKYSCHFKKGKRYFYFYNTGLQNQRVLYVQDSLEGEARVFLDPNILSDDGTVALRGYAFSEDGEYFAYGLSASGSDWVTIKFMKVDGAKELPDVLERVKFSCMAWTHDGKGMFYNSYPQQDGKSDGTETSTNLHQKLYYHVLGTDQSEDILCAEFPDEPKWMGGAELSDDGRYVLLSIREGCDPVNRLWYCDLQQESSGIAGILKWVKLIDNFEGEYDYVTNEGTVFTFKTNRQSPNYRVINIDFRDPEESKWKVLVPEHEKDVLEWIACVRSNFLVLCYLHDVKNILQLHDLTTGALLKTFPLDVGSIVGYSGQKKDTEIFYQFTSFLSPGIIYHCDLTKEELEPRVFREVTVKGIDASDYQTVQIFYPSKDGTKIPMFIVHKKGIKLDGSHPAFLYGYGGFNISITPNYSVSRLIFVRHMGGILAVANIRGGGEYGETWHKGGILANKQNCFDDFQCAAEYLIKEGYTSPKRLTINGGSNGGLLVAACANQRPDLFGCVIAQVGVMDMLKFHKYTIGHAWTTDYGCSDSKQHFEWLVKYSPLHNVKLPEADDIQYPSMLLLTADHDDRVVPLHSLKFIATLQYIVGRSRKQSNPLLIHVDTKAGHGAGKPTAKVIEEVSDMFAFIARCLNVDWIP

[14] = tested on: Mycobacterium tuberculosis; assay: Antibacterial activity against Mycobacterium tuberculosis H37Ra; assay type: functional
PC-3 = assay: Cytotoxicity against human PC3 cells; assay type: functional
HT-29 = assay: Cytotoxicity against human HT-29 cells; assay type: functional

T5 sequence (P04637 whole entry, the tested form may be a part): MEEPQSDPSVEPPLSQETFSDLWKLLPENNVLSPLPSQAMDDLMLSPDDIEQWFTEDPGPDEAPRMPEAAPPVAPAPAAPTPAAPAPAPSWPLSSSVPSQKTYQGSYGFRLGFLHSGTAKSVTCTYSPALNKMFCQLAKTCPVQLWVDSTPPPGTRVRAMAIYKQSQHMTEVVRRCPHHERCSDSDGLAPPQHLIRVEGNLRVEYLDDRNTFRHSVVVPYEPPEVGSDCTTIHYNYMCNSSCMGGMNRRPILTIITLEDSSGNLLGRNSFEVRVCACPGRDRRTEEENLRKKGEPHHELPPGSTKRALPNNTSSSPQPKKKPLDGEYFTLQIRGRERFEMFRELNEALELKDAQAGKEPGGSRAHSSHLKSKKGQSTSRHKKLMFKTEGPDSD
T5 sequence (Q00987 whole entry, the tested form may be a part): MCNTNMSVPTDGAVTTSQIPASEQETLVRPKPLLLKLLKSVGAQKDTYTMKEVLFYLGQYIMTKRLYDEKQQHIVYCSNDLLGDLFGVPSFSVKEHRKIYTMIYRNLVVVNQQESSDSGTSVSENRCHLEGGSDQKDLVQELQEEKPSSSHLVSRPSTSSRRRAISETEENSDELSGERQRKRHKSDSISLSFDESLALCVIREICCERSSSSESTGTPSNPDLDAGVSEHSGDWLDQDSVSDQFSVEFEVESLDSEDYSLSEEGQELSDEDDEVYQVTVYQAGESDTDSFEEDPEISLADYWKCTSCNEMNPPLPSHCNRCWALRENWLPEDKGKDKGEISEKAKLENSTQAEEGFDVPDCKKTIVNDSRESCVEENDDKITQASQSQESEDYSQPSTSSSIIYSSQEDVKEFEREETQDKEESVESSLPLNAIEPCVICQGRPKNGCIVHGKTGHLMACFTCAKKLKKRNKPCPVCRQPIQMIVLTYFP
T6 sequence (Q00987 whole entry): as the sequence (Q00987 whole entry, the tested form may be a part) above
Sequence of Mitogen-activated protein kinase 14 (Q16539 whole entry): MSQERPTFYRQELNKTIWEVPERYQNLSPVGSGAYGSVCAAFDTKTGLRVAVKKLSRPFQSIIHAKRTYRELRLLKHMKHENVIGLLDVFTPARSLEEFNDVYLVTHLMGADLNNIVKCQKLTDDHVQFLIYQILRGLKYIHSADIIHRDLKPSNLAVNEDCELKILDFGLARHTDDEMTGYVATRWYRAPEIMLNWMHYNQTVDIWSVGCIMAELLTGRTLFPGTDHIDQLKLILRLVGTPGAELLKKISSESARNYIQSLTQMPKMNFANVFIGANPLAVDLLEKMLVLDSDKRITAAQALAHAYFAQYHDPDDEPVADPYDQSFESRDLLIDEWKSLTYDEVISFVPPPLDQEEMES
Sequence of Glycogen synthase kinase-3 beta (Q9WV60 whole entry): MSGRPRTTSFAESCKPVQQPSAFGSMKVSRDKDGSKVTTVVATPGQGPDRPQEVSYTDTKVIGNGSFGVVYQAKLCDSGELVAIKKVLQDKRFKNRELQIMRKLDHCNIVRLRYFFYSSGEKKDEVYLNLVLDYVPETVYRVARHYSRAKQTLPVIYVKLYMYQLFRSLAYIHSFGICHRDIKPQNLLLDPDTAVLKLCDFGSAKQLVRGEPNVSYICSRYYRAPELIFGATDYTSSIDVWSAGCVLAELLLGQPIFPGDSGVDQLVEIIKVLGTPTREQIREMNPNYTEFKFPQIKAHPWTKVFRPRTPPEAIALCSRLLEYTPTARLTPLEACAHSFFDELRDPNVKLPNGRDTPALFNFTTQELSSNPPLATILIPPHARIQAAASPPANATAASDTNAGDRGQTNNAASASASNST

Compound `c1cnc2nc(-c3ccc4[nH]ncc4c3)c(NC3CCCCC3)n2c1` has a pKi [1] of 8.00.
Work on `O=C(CN(CCCNc1ccnc2cc(Cl)ccc12)C(=O)c1ccncc1)NC1CCCCC1` yielded a pIC50 (Plasmodium falciparum [2]) of 6.21.
In the case of `O=C(CN(CCCNc1ccnc2cc(Cl)ccc12)C(=O)c1cnccn1)NC1CCCCC1`, the pIC50 (Plasmodium falciparum [2]) was 6.27.
`Cc1cc2c(c(=O)n1C)C(c1ccc(N(C)C)c(Br)c1)C(C#N)=C(N)O2` (stereo not given) gave a GI50 (HeLa) of 330 nM.
For `CC(NCCCNc1ccnc2cc(Cl)ccc12)c1nc(Cc2ccccc2)c(N2CCOCC2)o1` (stereo not given), the “Ratio IC50” value (Plasmodium falciparum [3]) was 21 and the pIC50 (Plasmodium falciparum [4]) was 8.42.
With `Cc1ccoc1-c1cc(-c2ccc(Br)cc2)[nH]c(=N)c1C#N` the pIC50 [5] was 7.15.
Work on `N#Cc1c(-c2ccc(Cl)c(Cl)c2)cc(-c2ccc(Br)cc2)nc1N` yielded a pIC50 [5] of 6.92.
Work on `COC(c1ccc(C)cc1)c1cnn2c(-c3ccccc3)cc3c(Cl)cccc3c12` (stereo not given) yielded a pIC50 (Aurora kinase A) of 4.87, a pIC50 [6] of 5.66 and a pIC50 [7] of 5.35. The pIC50 [8] was 6.00.
Work on `COc1ccc(NN2[C@@H]([C@H](O)c3cc(Br)c(OC)c(OC)c3)C=C[C@H]3C(=O)N(C4CCCCC4)C(=O)[C@H]32)cc1` yielded a pIC50 [9] of 4.18.
In the case of `O=C1NC(=O)[C@@H]2C=C[C@H]([C@H](O)C3CC=CCC3)N(Nc3ccc(Cl)cc3Cl)[C@H]12` (stereo not given in full), the pIC50 [9] was 4.17.
With `O=C(NCc1ccccc1)C1C(=O)Nc2sc3c(c2C(=O)N1Cc1ccc(Cl)cc1)CCCC3` (stereo not given) the pKi [10] was 4.40.
In the case of `O=C(NCc1ccc(Cl)c(Cl)c1)C1C(=O)Nc2sc3c(c2C(=O)N1Cc1ccc(Cl)cc1)CCCC3` (stereo not given), the pKi [10] was 4.35.
For `Cc1ccc(S(=O)(=O)/N=C(\Nc2ccc(Cl)cc2)NC(C)(C)C)cc1`, the pKd [11] was less than 4.00.
In the case of `O=C1C(O)=C(c2ccccc2)C(c2ccc(Cl)cc2)N1Cc1ccc(Cl)cc1` (stereo not given), the pKd [11] was less than 3.70, the pIC50 [12] was 4.91 and the pIC50 [13] was 4.58.
In the case of `CC1(C)CC(=O)C2=C(C1)Oc1ccc3ccccc3c1C2c1ccc(O)cc1` (stereo not given), the IC50 (MCF7) was 6.7 µg/mL (≈ 18.1 µM).
Work on `N#CC1=C(N)Oc2ccc3ccccc3c2C1c1ccc([N+](=O)[O-])cc1` (stereo not given) yielded an IC50 (MCF7) of 8.9 µg/mL (≈ 25.9 µM).
In the case of `CC1(C(=O)NC2CCCCC2)CCCC(=O)N1CCCCCNc1ccnc2cc(Cl)ccc12` (stereo not given), the pIC50 (Plasmodium falciparum [4]) was 7.02.
With `COC(=O)C1=C(C)N(C)C(=O)N(C(=O)NCCCCNc2ccnc3cc(Cl)ccc23)C1c1ccc(OC)cc1` (stereo not given) the “Ratio IC50” value (Plasmodium falciparum [3]) was 200 and the pIC50 (Plasmodium falciparum [4]) was 8.40.
`CNC(=O)CC1S/C(=N\N=C(/C)c2ccc(Br)cc2)N(C)C1=O` (stereo not given) showed an inhibition at 50 µM (Trypanosoma cruzi) of 60%.
`CCOC(=O)c1ccc2c(c1)c1c(c(-c3cccc4ccccc34)[n+]2C)CCO1` showed a pIC50 (Prolyl endopeptidase) of 4.12.
For `COc1ccc(C2Nc3ccccc3C3CCCOC32)cc1` (stereo not given), the MIC [14] was 6.25 µM (≈ 1.85 µg/mL).
Compound `Cn1c(=O)c2c(c3ccccc31)OC(N)=C(C#N)C2c1cncc(Br)c1` (stereo not given) has a GI50 (HeLa) of 13 nM.
For `CC1CS(=O)(=O)CCN1/N=C/c1ccc([N+](=O)[O-])o1` (stereo not given) [NIFURTIMOX], the inhibition at 50 µM (Trypanosoma cruzi) was 100%.
`CC(=O)O[C@H]1C(=O)[C@@]2(C)[C@H]([C@H](OC(=O)c3ccccc3)[C@]3(O)C[C@H](OC(=O)[C@H](O)[C@@H](NC(=O)c4ccccc4)c4ccccc4)C(C)=C1C3(C)C)[C@]1(OC(C)=O)CO[C@@H]1C[C@@H]2O` [PACLITAXEL] gave a GI50 (PC-3; Homo sapiens, PC-3) of 7.2 nM and a GI50 (HT-29; Homo sapiens, HT-29) of 5.3 nM.
For `CC/C(=C(\c1ccccc1)c1ccc(OCCN(C)C)cc1)c1ccccc1` [TAMOXIFEN], the IC50 (MCF7) was 10 µg/mL (≈ 26.9 µM).
In the case of `CC[C@@H](C)[C@H](NC(=O)[C@H]1CCCCN1C)C(=O)N(COC(=O)CC(C)C)[C@H](C[C@@H](OC(C)=O)c1nc(C(=O)N[C@@H](Cc2ccc(O)cc2)C[C@H](C)C(=O)O)cs1)C(C)C` [TUBULYSIN A], the GI50 (PC-3) was 0.21 nM and the GI50 (HT-29) was 0.32 nM.
